Structures can show the parent of a compound that is named as a salt.
Columns and labels:
[1] = target: T1, human synovial phospholipase A2 (PLA2) (Homo sapiens, UniProt P14555); assay: in vitro inhibition of human synovial phospholipase A2 (PLA2); assay type: biochemical
T1 sequence (P14555 21-144): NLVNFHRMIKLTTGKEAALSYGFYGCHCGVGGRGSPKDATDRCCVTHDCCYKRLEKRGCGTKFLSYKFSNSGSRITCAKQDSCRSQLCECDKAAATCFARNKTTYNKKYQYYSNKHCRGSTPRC

[2] = target: T2, human cytosolic phospholipase A2 (PLA2) (Homo sapiens, UniProt P47712); assay: in vitro inhibition of human cytosolic phospholipase A2 (PLA2); assay type: biochemical
T2 sequence (P47712 1-749): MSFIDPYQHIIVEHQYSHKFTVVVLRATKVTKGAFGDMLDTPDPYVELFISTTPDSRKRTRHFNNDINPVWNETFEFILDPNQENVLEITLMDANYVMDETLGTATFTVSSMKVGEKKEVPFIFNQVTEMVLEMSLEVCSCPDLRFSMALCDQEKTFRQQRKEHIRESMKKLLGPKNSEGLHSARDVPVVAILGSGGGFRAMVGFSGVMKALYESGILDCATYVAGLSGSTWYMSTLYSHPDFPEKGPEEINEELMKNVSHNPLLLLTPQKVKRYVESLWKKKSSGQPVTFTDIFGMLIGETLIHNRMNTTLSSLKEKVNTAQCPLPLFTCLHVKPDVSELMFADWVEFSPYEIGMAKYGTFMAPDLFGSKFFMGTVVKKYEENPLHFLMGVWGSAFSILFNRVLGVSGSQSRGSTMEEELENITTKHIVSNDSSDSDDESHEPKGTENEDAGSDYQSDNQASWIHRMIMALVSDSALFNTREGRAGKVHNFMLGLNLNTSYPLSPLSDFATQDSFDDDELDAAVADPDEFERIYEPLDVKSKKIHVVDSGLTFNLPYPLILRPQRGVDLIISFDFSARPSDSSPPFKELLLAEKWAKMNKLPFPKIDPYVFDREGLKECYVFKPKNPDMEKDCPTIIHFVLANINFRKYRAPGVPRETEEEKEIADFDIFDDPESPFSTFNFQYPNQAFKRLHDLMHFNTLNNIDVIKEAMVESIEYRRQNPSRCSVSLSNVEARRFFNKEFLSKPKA

[3] = target: binding of tritiated LTB4 to guinea pig lung membranes (Cavia porcellus, UniProt H0VYV8); assay: biochemical; conditions: for Ki: read-out: pKi (mean -log Ki) (converted)
Chain of binding of tritiated LTB4 to guinea pig lung membranes (H0VYV8 1-348): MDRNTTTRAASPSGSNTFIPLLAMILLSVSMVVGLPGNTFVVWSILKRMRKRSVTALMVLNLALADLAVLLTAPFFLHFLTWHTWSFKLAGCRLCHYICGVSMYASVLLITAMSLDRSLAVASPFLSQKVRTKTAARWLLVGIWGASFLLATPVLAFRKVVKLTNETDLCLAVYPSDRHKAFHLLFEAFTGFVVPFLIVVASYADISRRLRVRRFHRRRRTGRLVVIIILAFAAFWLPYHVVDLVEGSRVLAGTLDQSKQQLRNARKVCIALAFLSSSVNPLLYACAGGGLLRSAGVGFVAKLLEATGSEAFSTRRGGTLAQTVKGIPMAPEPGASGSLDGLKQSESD
Protocol: The effectiveness of compounds of Formula I to inhibit the binding of tritiated LTB4 to guinea pig lung membranes was determined as follows.
The binding reaction was terminated by the addition of 1 mL ice cold wash buffer (25 mM Tris-HCl, pH 7.5) followed immediately by vacuum filtration over Whatman GF/C glass fiber filters using a Brandel (Gaithersburg, Md.) 48 place harvester. The filters were washed three times with 1 mL of wash buffer. Retained radioactivity was determined by liquid scintillation counting at 50% counting efficiency using Ready Protein Plus cocktail (Beckman, Fullerton, Calif.). Nondisplaceable binding was determined in the presence of 1 μM LTB4 and was usually less than 10% of total binding. […] The data reported below is the mean -log Ki, otherwise known as the pKi, for n experiments.

Structure (SMILES)	Ki [3]	also measured
CCc1cc(-c2ccccc2)c(O)cc1OCCCCCC(C)(C)c1nn[nH]n1.[Na]		inhibition of human synovial PLA2 [1]: in vitro inhibitors; inhibition of human cytosolic PLA2 [2]: in vitro inhibitors
CCCc1c(OCCCOc2cc(O)c(-c3ccc(F)cc3)cc2CC)ccc2c1OC(C(=O)O)CC2 (stereo not drawn) [Example 55, 8-Propyl-7-[3-[4-(4-fluorophenyl)-2-ethyl-5-hydroxyphenoxy]propoxy]-3,4-dihydro-2H-1-benzopyran-2-carboxylic acid]	2.95 nM	inhibition of human synovial PLA2 [1]: in vitro inhibitors; inhibition of human cytosolic PLA2 [2]: in vitro inhibitors
CCCc1c(OCCCOc2cc(O)c(-c3ccccc3)cc2CC)cccc1OC(C)C(=O)O (stereo not drawn) [Example 56, 2-[3-[3-[(5-Ethyl-2-hydroxy[1,1'-biphenyl]-4-yl)oxy]propoxy]-2-propylphenoxy]propanoic acid]	9.33 nM	inhibition of human synovial PLA2 [1]: in vitro inhibitors; inhibition of human cytosolic PLA2 [2]: in vitro inhibitors
CCCc1c(OCCCOc2cc(O)c(-c3ccc(F)cc3)cc2CC)cccc1C(=O)c1ccccc1C(=O)O [Example 78, 2-[2-Propyl-3-[3-[2-ethyl-5-hydroxy-4-(4-fluorophenyl)phenoxy]propoxy]benzoyl]benzoic acid]	9.55 nM	
CCCc1c(Cc2ccccc2C(=O)O)cccc1OCCCOc1cc(O)c(-c2ccc(F)cc2)cc1CC [Example 79, 2-[[2-Propyl-3-[3-[2-ethyl-5-hydroxy-4-(4-fluorophenyl)phenoxy]propoxy]phenyl]methyl]benzoic acid]	10.5 nM	
CCCc1c(OCCCOc2cc(O)c(-c3ccc(F)cc3)cc2CC)cccc1Sc1ccccc1C(=O)O [Example 80, 2-[2-Propyl-3-[3-[2-ethyl-4-(4-fluorophenyl)-5-hydroxyphenoxy]propoxy]thiophenoxy]benzoic acid]	11.2 nM	
CCCc1c(OCCCOc2cc(O)c(-c3ccc(F)cc3)cc2CC)cccc1[S+]([O-])c1ccccc1C(=O)O (stereo not drawn) [Example 81, 2-[2-Propyl-3-[3-[2-ethyl-4-(4-fluorophenyl)-5-hydroxyphenoxy]propoxy]phenylsulfinyl]benzoic acid]	1.35 nM	
CCCc1c(OCCCOc2cc(O)c(-c3ccc(F)cc3)cc2CC)cccc1S(=O)(=O)c1ccccc1C(=O)O [Example 82, 2-[2-Propyl-3-[3-[2-ethyl-4-(4-fluorophenyl)-5-hydroxyphenoxy]propoxy]phenylsulfonyl]benzoic acid hydrate]	10.2 nM	
CCc1cc(-c2ccc(F)cc2)c(O)cc1OCCCOc1ccc(C#CCCC(=O)O)cc1CCC(=O)O [Example 83, 5-[3-[2-(1-Carboxy)ethyl]-4-[3-[2-ethyl-4-(4-fluorophenyl)-5-hydroxyphenoxy]propoxy]phenyl]-4-pentynoic acid disodium salt 0.4 hydrate]	0.0661 nM	
CCc1cc(-c2ccc(F)cc2)c(O)cc1OCCCCCC(c1ccc(OCC(=O)O)cc1)c1nn[nH]n1 (stereo not drawn) [Example 85, 1-(4-(Carboxymethoxy)phenyl)-1-(1H-tetrazol-5-yl)-6-(2-ethyl-4-(4-fluorophenyl)-5-hydroxyphenoxy)hexane]	0.245 nM	
CCc1cc(-c2ccc(F)cc2)c(O)cc1OCCCOc1ccccc1/C=C/C(=O)O [Example 87, 3-(2-(3-(2-Ethyl-4-(4-fluorophenyl)-5-hydroxyphenoxy)propoxy)phenyl)-E-propenoic acid]	9.55 nM	
CCc1cc(-c2ccc(F)cc2)c(O)cc1OCCCOc1ccccc1/C=C(\C)C(=O)O [Example 88, 3-(2-(3-(2-Ethyl-4-(4-fluorophenyl)-5-hydroxyphenoxy)propoxy)phenyl)-2-methyl-E-propenoic acid]	5.01 nM	
CCc1cc(-c2ccc(F)cc2)c(O)cc1OCCCOc1ccccc1CCc1nnn[nH]1 [Example 89, 5-(2-(2-(3-(2-Ethyl-4-(4-fluorophenyl)-5-hydroxyphenoxy)propoxy)phenyl)ethyl)-1H-tetrazole]	14.1 nM	
CCc1cc(-c2ccc(F)cc2)c(O)cc1OCCCOc1cc(OCCCCC(=O)O)ccc1CCC(=O)O [Example 90, 3-(2-(3-(2-Ethyl-4-(4-fluorophenyl)-5-hydroxyphenoxy)propoxy)-4-(4-carboxybutyloxy)phenyl)propionic acid]	20.9 nM	
CCc1cc(-c2ccc(F)cc2)c(O)cc1OCCCOc1cccc2c1CCC(=O)O2 [Example 91, 5-[3-[4-(4-Fluorophenyl)-2-ethyl-5-hydroxyphenoxy]propoxy]-3,4-dihydro-2H-1-benzopyran-2-one]	0.525 nM	
CCc1cc(-c2ccc(F)cc2)c(O)cc1OCCCOc1cccc(CCC(=O)O)c1 [Example 92, 3-(3-{3-[2-Ethyl-4-(4-fluorophenyl)-5-hydroxyphenyloxy]propoxy}phenyl)propanoic acid]	8.32 nM	
CCCc1cc(CCC(=O)O)ccc1OCCCOc1cc(O)c(-c2ccc(F)cc2)cc1CC [Example 94, 3-(4-{3-[2-Ethyl-4-(4-fluorophenyl)-5-hydroxyphenyloxy]propoxy}-3-propylphenyl)propanoic acid]	20.9 nM	
CCCc1c(CCC(=O)O)cccc1OCCCOc1cc(O)c(-c2ccc(F)cc2)cc1CC [Example 95, 3-(3-{3-[2-Ethyl-4-(4-fluorophenyl)-5-hydroxyphenyloxy]propoxy}-2-propylphenyl)propanoic acid]	5.5 nM	
CCCc1c(CCC(=O)O)cccc1OCCCOc1cc(O)c(-c2ccccc2)cc1CC [Example 96, disodium salt]	25.1 nM	
CCc1cc(-c2ccc(F)cc2)c(O)cc1OCCCOc1cccc(C(=O)c2ccccc2C(=O)O)c1 [Example 97, 2-[3-[3-[2-Ethyl-5-hydroxy-4-(4-fluorophenyl)phenoxy]propoxy]benzoyl]benzoic acid disodium salt hemihydrate]		pKi (mean -log Ki) ([3]; inhibition of [3H]-LTB4 binding, guinea pig lung membranes, mean of n experiments, ~140 pM [3H]-LTB4, 45 minutes, 30° C., pH 6.5): 7.67
CCCc1c(OCCCOc2cc(O)c(-c3ccc(F)cc3)cc2CC)cccc1Oc1ccccc1C(=O)O [sodium salt]	5.62 nM	
CCCc1ccc(CCC(=O)O)cc1OCCCOc1cc(O)c(-c2ccc(F)cc2)cc1CC [sodium salt]	102 nM	

Source: US5462954A, “Substituted phenyl phenol leukotriene antagonists” (Eli Lilly and Company, priority 1994, dated 1995)
